Assay results as given in patent publication US11883509B2, “Pharmaceutical composition for inhalation administration for labeling pulmonary tumorous lesion, containing fluorescent contrast agent as active ingredient” (KOREA UNIVERSITY RESEARCH AND BUSINESS FOUNDATION, priority 2018, dated 2024).
Where “and” joins values, the source holds several entries; their conditions need not be identical. Identical values can stand only once.

Legend:
Format in all cases: in vivo
[1] = tested on: VX2 carcinoma; assay: Identification of boundary of cancer tissue in lung tumor-induced rabbit model through airway administration of ICG; settings: ICG 0.75 mg/mL inhaled 4 minutes
Protocol: (§1) In Example 1, it was confirmed that the ICG administered via the airway through respiration stained the lung tissue quickly and emitted strong fluorescence with little effect on other organs. Then, it was investigated whether the airway administration of ICG can be used to distinguish cancer tissue from normal tissue by staining only the normal tissue in a lung tumor animal model. Specifically, a lung tumor-induced rabbit model was prepared as shown in FIG. 2 by transplanting VX2 carcinoma into the lungs of a rabbit. The rabbit was made to inhale ICG (0.75 mg/mL) for 4 minutes by connecting a nebulizer to a ventilator. 1 hour later, the chest of the rabbit was cut open and the fluorescence images of the lung were acquired using a NIR imaging system. After conducting surgery for pulmonary nodules, the excised lung tissue was prepared into 10 μm-thick cryosections and optical images were acquired using a NIR microscope. Then, the lung tissue was stained with H&E, and the boundary of cancer tissue was observed histologically.

[2] = tested on: VX2 carcinoma; assay: Cancer detection rate (TMDE) in lung tumor-induced rabbit model depending on administration route of ICG; settings: 0.25 mg/kg ICG through respiration vs 5 mg/kg intravenous, TMDE at 1, 3, 6, 24 hours
Protocol: as §1, with “Then, the lung tissue was stained with H&E, and the boundary of cancer tissue was observed histologically.” left out
Specifically, after extracting the lungs from a lung tumor-induced rabbit model to which 0.25 mg/kg ICG was administered through respiration in the same manner as in Example 2 and a lung tumor-induced rabbit model to which 5 mg/kg ICG was administered intravenously, fluorescence images were acquired and TMDE was quantitated 1 hour later, 3 hours later, 6 hours later and 24 hours later using a NIR imaging system.

[3] = tested on: VX2 carcinoma; assay: Cancer detection rate (TMDE) in lung tumor-induced rabbit model depending on concentration of administered ICG
Protocol: as §1
It was investigated whether the desired effect can be achieved with a less amount of ICG administered by airway administration as compared to intravenous administration of ICG. Specifically, after administering ICG at different concentrations (0.1 mg/kg, 0.25 mg/kg, 0.5 mg/kg, 1 mg/kg) in the same manner as in Example 2 to the lung tumor-induced rabbit model of Example 2, the fluorescence images of the lung were acquired and TMDE (tumor margin detection efficiency) depending on the ICG concentration was compared.

[4] = tested on: lung tumor; assay: Visualization of lesion in human lungs through administration of ICG via bronchus
Protocol: As confirmed in Examples 2-4, remarkably high cancer detection rate could be achieved through airway administration of ICG for lung tumor even with a less amount of ICG. […] Specifically, the lobar bronchi of six lung tumor patients who received surgery for pulmonary nodules in Korea University Guro Hospital were connected with tubes and 0.75 mg/mL ICG was administered for 4 minutes using a nebulizer. Then, fluorescence images were acquired using a NIR imaging system.

[5] = Distribution of ICG administered to normal mice via airway and fluorescence duration
Protocol: It was investigated, when Indocyanine green (ICG) is administered via the airway of a subject through respiration, whether the lungs are stained properly, organs other than the lungs are also affected, how long the staining lasts, etc. More specifically, 0.25 mg/mL ICG were administered to normal mice for 10 minutes through respiration using the SciReq nebulizer, as shown in FIG. 1a. The, the ICG (2.5 mg/kg)-administered mice were sacrificed 10 minutes, 1 hour, 3 hours, 6 hours and 24 hours later. After extracting the brain, lung, liver, kidney and spleen, fluorescence images were acquired and fluorescence signal intensity was measured using a fluorescence imaging system.

[6] = tested on: lung cancer cells; assay: Distribution of inhaled ICG in mouse lung cancer model with GFP-labeled lung cancer cells; settings: fluorescence imaging
Description: In order to investigate the boundary of cancer cells and ICG distribution more accurately, a mouse lung cancer model was established by labeling lung cancer cells with GFP and the distribution of ICG administered through respiration was investigated by fluorescence imaging.

[7] = six lung tumor patients, 0.75 mg/mL ICG via lobar bronchus 4 minutes
[8] = airway administration by nebulizer, ICG 2.5 mg/kg
[9] = airway administration, extracted organs, fluorescence imaging

## CC1(C)C(/C=C/C=C/C=C/C=C2\N(CCCCS(=O)(=O)O)c3ccc4ccccc4c3C2(C)C)=[N+](CCCCS(=O)(=O)[O-])c2ccc3ccccc3c21 [ICG, Indocyanine green]
[1]
  boundary of cancer tissue identified by ICG versus H&E histology: consistent with the histologically observed boundary of cancer
[1]; imaged 1 hour later
  diameter of the cancer tissue negatively contrasted by ICG: 2 mm
  distribution of inhaled ICG in cancer tissue versus normal tissue: not distributed in the cancer tissue but stains the normal tissue only
[2]
  cancer detection rate (TMDE) of respiration administration relative to intravenous administration: ≥ 2.5 times
[3]; airway administration
  ICG concentration needed for accurate detection of the boundary of lung tumor: ≥ 0.25 mg/kg
[3]; airway administration of ICG at 0.1, 0.25, 0.5 and 1 mg/kg
  detection of boundary of cancer tissue: could be detected effectively
[3]; airway administration, 0.1-1 mg/kg
  lung tumor detection rate (TMDE) versus ICG concentration: increased depending on the concentration of ICG
[4]; six lung tumor patients (Case 1-6, one value per patient), 0.75 mg/mL ICG via lobar bronchus 4 minutes by nebulizer
  TMDE: 2.8 (2×) and 2.7 and 3.3 and 2.6 and 3.4
[4]; [7]
  boundary between cancer tissue and normal tissue versus pathology: consistent with the pathological outcome for each patient
  distribution of inhaled ICG in human lungs: distributed only in the normal tissue of the lungs
[5]; [8]
  time after administration at which fluorescence is emitted in the lungs: ≤ 10 min
  time after administration at which fluorescence signals could still be detected: ≥ 24 h
  time of peak fluorescence signals after administration: 1 h
[5]; [9]
  distribution of ICG in the kidney and spleen: almost nonexistent
  distribution of ICG in the lung: present at high concentrations particularly in the lung
[6]
  distribution of ICG administered through respiration: distributed through the lungs except for the lung cancer cells
